From ChEMBL document CHEMBL4270485, “Determination of Gymnemic Acid I as a Protein Biosynthesis Inhibitor Using Chemical Proteomics” (J Nat Prod, 2017)
Activity calls are given as the source filed them. No cut-off for these calls is given here.

Key:
HeLa = experiment: Inhibition of protein synthesis in human HeLa cells at 50 to 500 uM pre-incubated for 1 hr before L-[35S]-cysteine and L-[35S]-methionine addition and measured after 1 hr by Comassie staining based autoradiography; type: functional, cell-based
[1] = Drug internalization in human HeLa cells at 1 uM by RP-HPLC-MS analysis; type: ADME, cell-based

- Drug uptake [1]: 15%
Structure (SMILES): C/C=C(\C)C(=O)O[C@H]1[C@H](O)[C@]2(COC(C)=O)[C@@H](O)C[C@]3(C)C(=CC[C@@H]4[C@@]5(C)CC[C@H](O[C@@H]6O[C@H](C(=O)NCC)[C@@H](O)[C@H](O)[C@H]6O)[C@@](C)(CO)[C@@H]5CC[C@]43C)[C@@H]2CC1(C)C
- inhibition (HeLa): inactive
